In patent US20060117411A1, “Enhancing plant pathogen resistance via increasing BiP levels” (priority 1998, published 2006):

Experiments:
PR1 mRNA = test: SA spraying of Arabidopsis WT and saiI mutant, Northern blot of PR1; assay type: in vivo, Arabidopsis thaliana; conditions: SA 5 mM
Protocol: WT and saiI mutants of the same ecotype were sprayed with SA (5 mM) and incubated in the light. Total RNA was extracted and probed with the PR1 and BiP gene from Arabidopsis. The induction of PR1 in WT Arabidopsis was detected 3 hours after SA-treatment and continued to increase until 8 hours (FIG. 10). […] As in tobacco plants, BiP mRNA levels increase prior to PR1 transcripts in SA treated Arabidopsis plants (FIG. 10) and diminish after prolonged incubations (data not shown).
Plants of Nicotiana tabacum cultivar Petit Havana (Maliga et al., 1973) were axenically grown in MS medium (Murashige and Skoog, 1962), 2% Sucrose in a temperature controlled room at 25° C. with a 16 h day/[…] regime and a light irradiance of 200 μE.m^−2.s^−1. Arabidopsis thaliana Nössen WT and saiI plants (Shah et al., 1997) were grown under the same conditions.
Plants were sprayed with 5 mM SA and 0.5% Tween 20 from all sides, ensuring contact on both sides of each leaf of the plant. Typically, 10 ml of the SA solution was sprayed onto each plant. Plants were then transferred from the 16 h day/8 h night regime to constant light regime.
(§1) Protoplasts RNAs were extracted as described by Jones et al., (1985). Leaves were ground in frozen liquid nitrogen and transferred to NTES buffer (0.1 M NaCl, 10 mM Tris pH 7.5, 1 mM EDTA, 1% SDS). Protoplasts samples were frozen in liquid nitrogen and thawed in NTES buffer. RNA was extracted after adding an equal volume of phenol/chloroform. Ethanol precipitation was carried out after incubation at −20° C. for 16 hours. The pellet was resuspended and RNA was selectively precipitated with LiCl (2M LiCl) for 2 hours on ice. The pellet was washed with 70% ethanol and resuspended in diethyl pyrocarbonate-treated water. Gel blots of total RNA denatured in formamide and formaldehyde were prepared. RNA was blotted onto Hybond-N membrane (Amersham Corp), as described by the manufacturer. […]

β-1,3-glucanase mRNA = test: Tunicamycin treatment of tobacco protoplasts, Northern blot of β-1,3-glucanase; assay type: cell-based, Nicotiana tabacum; conditions: tunicamycin 20 μg/mL
Protocol: To compare the CDE- and UPR-mediated induction of BiP, we wanted to test if both stimuli are additive. […] This is not surprising as protoplasts are prepared with CDEs. These protoplasts were then treated with tunicanycin, to superimpose the UPR onto the CDE response. […] The additional ER stress could trap BiP in malfolded protein complexes, thus making it unavailable to promote PR protein synthesis on the rough ER.
During prolonged incubation times, transcript levels encoding secretory proteins recover to almost normal (initial) values again. Identical results were obtained with other transcripts encoding the secretory proteins acidic chitinase and basic chitinase present in tobacco protoplasts, showing that the effect is not restricted to β-1,3-glucanase (data not shown).
as §1, with “water.” for “water. Gel blots of total RNA denatured in formamide and formaldehyde were prepared. RNA was blotted onto Hybond-N membrane (Amersham Corp), as described by the manufacturer.”

Compound | PR1 induction during SA-treatment in saiI mutant (PR1 mRNA; Arabidopsis saiI mutant) | time after SA-treatment at which induction of PR1 is detected (PR1 mRNA; WT Arabidopsis, light) | time until which PR1 induction continues to increase (PR1 mRNA; WT Arabidopsis, light) | transcript level of β-1,3-glucanase during UPR-induced BiP transcription (time course) (β-1,3-glucanase mRNA; protoplasts) | β1,3-glucanase expression in protoplasts (β-1,3-glucanase mRNA; 2.5 hrs)
O=C(O)c1ccccc1O [SA, Salicylic Acid] | completely abolished | 3 h | ≤ 8 h | – | –
tunicamycin | – | – | – | rapidly decreases | inhibited
